Data as given in ChEMBL document CHEMBL1201862, “PubChem BioAssay data set” (2004).
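A five-concentration, 48-hour dose response in 96-well plates underlies each endpoint, interpolated linearly between surrounding concentrations. The concentration for 50% growth inhibition is given as GI50.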 Calls of active or inactive are those of the source. No stated cut-off is given here; in the data, active = GI50 up to about 1.1 µM and inactive = higher.

Columns and labels:
Experiment in all cases: growth of human tumour cells (NCI), 48 h
OVCAR-3 = test system: OVCAR-3
DLD-1 = test system: DLD-1
LXFL 529 = test system: LXFL 529
OVCAR-8 = test system: OVCAR-8
SN12C = test system: SN12C
KM12 = test system: KM12
UACC-62 = test system: UACC-62
SK-OV-3 = test system: SK-OV-3
A498 = test system: A498
HCC 2998 = test system: HCC 2998
ACHN = test system: ACHN
HT-29 = test system: HT-29
SK-MEL-2 = test system: SK-MEL-2
U-251 = test system: U-251
SF-268 = test system: SF-268
SF-295 = test system: SF-295
HCT-116 = test system: HCT-116
HOP-92 = test system: HOP-92
HCT-15 = test system: HCT-15
NCI-H23 = test system: NCI-H23
HL-60 = test system: HL-60
786-0 = test system: 786-0
M19-MEL = test system: M19-MEL
SK-MEL-28 = test system: SK-MEL-28
UO-31 = test system: UO-31
OVCAR-4 = test system: OVCAR-4
SNB-19 = test system: SNB-19
KM-20L2 = test system: KM-20L2
CCRF-CEM = test system: CCRF-CEM
RXF 393 = test system: RXF 393
CAKI-1 = test system: CAKI-1
SK-MEL-5 = test system: SK-MEL-5
IGROV-1 = test system: IGROV-1
NCI-H460 = test system: NCI-H460
DMS-114 = test system: DMS-114
HOP-62 = test system: HOP-62
RPMI-8226 = test system: RPMI-8226
M14 = test system: M14
OVCAR-5 = test system: OVCAR-5
UACC-257 = test system: UACC-257
XF498 = test system: XF498
K562 = test system: K562
Malme-3M = test system: Malme-3M
COLO 205 = test system: COLO 205
SF-539 = test system: SF-539
LOX IMVI = test system: LOX IMVI
TK-10 = test system: TK-10
NCI-H522 = test system: NCI-H522
SW-620 = test system: SW-620
EKVX = test system: EKVX
SNB-78 = test system: SNB-78
A549 = test system: A549
DU-145 = test system: DU-145
NCI/ADR-RES = test system: NCI/ADR-RES
SR = test system: SR
MCF7 = test system: MCF7
T47D = test system: T47D
MDA-MB-231 = test system: MDA-MB-231
MDA-N = test system: MDA-N
MOLT-4 = test system: MOLT-4
MDA-MB-435 = test system: MDA-MB-435
BT-549 = test system: BT-549
NCI-H226 = test system: NCI-H226
SNB-75 = test system: SNB-75
PC-3 = test system: PC-3
DMS-273 = test system: DMS-273

In the case of `CC1=NN(C(=O)c2ccc(Cl)cc2)C(=O)/C1=C/c1cccc([N+](=O)[O-])c1`, the GI50 (OVCAR-3) was > 100 µM (inactive), the GI50 (DLD-1) was > 100 µM (inactive) and the GI50 (LXFL 529) was > 100 µM (inactive). For the same molecule, the GI50 (OVCAR-8) was > 100 µM (inactive), the GI50 (SN12C) was > 100 µM (inactive) and the GI50 (KM12) was > 100 µM (inactive). For the same molecule, the GI50 (UACC-62) was > 100 µM (inactive), the GI50 (SK-OV-3) was > 100 µM (inactive) and the GI50 (A498) was > 100 µM (inactive). For the same molecule, the GI50 (HCC 2998) was > 100 µM (inactive), the GI50 (ACHN) was > 100 µM (inactive) and the GI50 (HT-29) was > 100 µM (inactive). For the same molecule, the GI50 (SK-MEL-2) was > 100 µM (inactive), the GI50 (U-251) was > 100 µM (inactive) and the GI50 (SF-268) was > 100 µM (inactive). For the same molecule, the GI50 (SF-295) was > 100 µM (inactive), the GI50 (HCT-116) was > 100 µM (inactive) and the GI50 (HOP-92) was > 100 µM (inactive). For the same molecule, the GI50 (HCT-15) was over 100 µM, the GI50 (NCI-H23) was > 100 µM (inactive) and the GI50 (HL-60) was > 100 µM (inactive). The GI50 (786-0) was > 100 µM (inactive), the GI50 (M19-MEL) was > 100 µM (inactive) and the GI50 (SK-MEL-28) was > 100 µM (inactive). The GI50 (UO-31) was > 100 µM (inactive), the GI50 (OVCAR-4) was > 100 µM (inactive) and the GI50 (SNB-19) was > 100 µM (inactive). For the same molecule, the GI50 (KM-20L2) was > 100 µM (inactive), the GI50 (CCRF-CEM) was > 100 µM (inactive) and the GI50 (RXF 393) was > 100 µM (inactive). For the same molecule, the GI50 (CAKI-1) was > 100 µM (inactive), the GI50 (SK-MEL-5) was > 100 µM (inactive) and the GI50 (IGROV-1) was > 100 µM (inactive). The GI50 (NCI-H460) was > 100 µM (inactive), the GI50 (DMS-114) was > 100 µM (inactive) and the GI50 (HOP-62) was > 100 µM (inactive). For the same molecule, the GI50 (RPMI-8226) was > 100 µM (inactive), the GI50 (M14) was > 100 µM (inactive) and the GI50 (OVCAR-5) was > 100 µM (inactive). For the same molecule, the GI50 (UACC-257) was > 100 µM (inactive), the GI50 (XF498) was > 100 µM (inactive) and the GI50 (K562) was > 100 µM (inactive). For the same molecule, the GI50 (Malme-3M) was > 100 µM (inactive), the GI50 (COLO 205) was > 100 µM (inactive) and the GI50 (SF-539) was > 100 µM (inactive). The GI50 (LOX IMVI) was > 100 µM (inactive), the GI50 (TK-10) was > 100 µM (inactive) and the GI50 (NCI-H522) was > 100 µM (inactive). The GI50 (SW-620) was > 100 µM (inactive), the GI50 (EKVX) was > 100 µM (inactive) and the GI50 (SNB-78) was > 100 µM (inactive). The GI50 (A549) was > 100 µM (inactive).
`CC1=NN(C(=O)c2ccccc2O)C(=O)/C1=C/c1ccccc1O` was tested, and the GI50 (OVCAR-3) was 0.215 µM (active), the GI50 (DLD-1) was 0.0807 µM (active) and the GI50 (LXFL 529) was 0.0573 µM (active). The GI50 (OVCAR-8) was 0.557 µM (active), the GI50 (DU-145) was 0.132 µM (active) and the GI50 (SN12C) was 0.579 µM (active). The GI50 (NCI/ADR-RES) was 0.558 µM (active), the GI50 (SR) was 0.251 µM (active) and the GI50 (KM12) was 2.76 µM (inactive). The GI50 (UACC-62) was 0.057 µM (active), the GI50 (SK-OV-3) was 0.0815 µM (active) and the GI50 (A498) was 0.0327 µM (active). The GI50 (MCF7) was 2.68 µM (inactive), the GI50 (T47D) was 0.225 µM (active) and the GI50 (HCC 2998) was 3.21 µM (inactive). For the same molecule, the GI50 (ACHN) was 0.0695 µM (active), the GI50 (HT-29) was 8.45 µM (inactive) and the GI50 (MDA-MB-231) was 0.381 µM (active). For the same molecule, the GI50 (SK-MEL-2) was 6.4 µM (inactive), the GI50 (U-251) was 0.114 µM (active) and the GI50 (SF-268) was 0.445 µM (active). The GI50 (SF-295) was 0.0736 µM (active), the GI50 (HCT-116) was 0.107 µM (active) and the GI50 (HOP-92) was 1.27 µM (inactive). For the same molecule, the GI50 (MDA-N) was 0.114 µM (active), the GI50 (MOLT-4) was 0.295 µM (active) and the GI50 (MDA-MB-435) was 0.0612 µM (active). For the same molecule, the GI50 (HCT-15) was 0.292 µM, the GI50 (NCI-H23) was 0.404 µM (active) and the GI50 (HL-60) was 0.409 µM (active). The GI50 (786-0) was 0.521 µM (active), the GI50 (BT-549) was 0.438 µM (active) and the GI50 (SK-MEL-28) was 18.5 µM (inactive). The GI50 (UO-31) was 0.0634 µM (active), the GI50 (OVCAR-4) was 1.08 µM (active) and the GI50 (NCI-H226) was 0.977 µM (active). For the same molecule, the GI50 (SNB-75) was 0.0968 µM (active), the GI50 (SNB-19) was 0.124 µM (active) and the GI50 (KM-20L2) was 11.5 µM (inactive). The GI50 (CCRF-CEM) was 0.164 µM (active), the GI50 (RXF 393) was 0.0986 µM (active) and the GI50 (CAKI-1) was 1.53 µM (inactive). The GI50 (SK-MEL-5) was 1.06 µM (active), the GI50 (IGROV-1) was 0.0577 µM (active) and the GI50 (NCI-H460) was 0.209 µM (active). For the same molecule, the GI50 (DMS-114) was 0.0853 µM (active), the GI50 (HOP-62) was 0.236 µM (active) and the GI50 (RPMI-8226) was 0.931 µM (active). The GI50 (M14) was 1.55 µM (inactive), the GI50 (OVCAR-5) was 3.74 µM (inactive) and the GI50 (UACC-257) was 2.31 µM (inactive). For the same molecule, the GI50 (XF498) was 0.365 µM (active), the GI50 (K562) was 0.0914 µM (active) and the GI50 (Malme-3M) was 0.766 µM (active). The GI50 (COLO 205) was 20.7 µM (inactive), the GI50 (SF-539) was 0.132 µM (active) and the GI50 (LOX IMVI) was 0.568 µM (active). The GI50 (TK-10) was 15.2 µM (inactive), the GI50 (NCI-H522) was 0.497 µM (active) and the GI50 (PC-3) was 1.35 µM (inactive). For the same molecule, the GI50 (SW-620) was 1.54 µM (inactive), the GI50 (EKVX) was 1.78 µM (inactive) and the GI50 (A549) was 0.157 µM (active).
`Cc1ccc(C(=O)/C=C2\Nc3c(c(=O)oc4ccccc34)N=C2NC23CC4CC(CC(C4)C2)C3)cc1` was tested, and the GI50 (OVCAR-3) was > 100 µM (inactive), the GI50 (DLD-1) was 89.9 µM (inactive) and the GI50 (LXFL 529) was > 100 µM (inactive). For the same molecule, the GI50 (OVCAR-8) was > 100 µM (inactive), the GI50 (SN12C) was > 100 µM (inactive) and the GI50 (SR) was > 100 µM (inactive). The GI50 (KM12) was > 100 µM (inactive), the GI50 (UACC-62) was > 100 µM (inactive) and the GI50 (SK-OV-3) was > 100 µM (inactive). The GI50 (HCC 2998) was > 100 µM (inactive), the GI50 (ACHN) was > 100 µM (inactive) and the GI50 (HT-29) was > 100 µM (inactive). The GI50 (SK-MEL-2) was > 100 µM (inactive), the GI50 (U-251) was > 100 µM (inactive) and the GI50 (SF-268) was > 100 µM (inactive). The GI50 (HCT-116) was > 100 µM (inactive), the GI50 (HOP-92) was 49.2 µM (inactive) and the GI50 (MOLT-4) was > 100 µM (inactive). The GI50 (HCT-15) was over 100 µM, the GI50 (NCI-H23) was > 100 µM (inactive) and the GI50 (HL-60) was > 100 µM (inactive). For the same molecule, the GI50 (786-0) was > 100 µM (inactive), the GI50 (M19-MEL) was > 100 µM (inactive) and the GI50 (SK-MEL-28) was > 100 µM (inactive). The GI50 (UO-31) was > 100 µM (inactive), the GI50 (NCI-H226) was > 100 µM (inactive) and the GI50 (SNB-75) was 28.6 µM (inactive). For the same molecule, the GI50 (SNB-19) was > 100 µM (inactive), the GI50 (KM-20L2) was > 100 µM (inactive) and the GI50 (CCRF-CEM) was > 100 µM (inactive). The GI50 (RXF 393) was > 100 µM (inactive), the GI50 (CAKI-1) was > 100 µM (inactive) and the GI50 (SK-MEL-5) was > 100 µM (inactive). The GI50 (IGROV-1) was > 100 µM (inactive), the GI50 (NCI-H460) was > 100 µM (inactive) and the GI50 (DMS-273) was > 100 µM (inactive). The GI50 (DMS-114) was > 100 µM (inactive), the GI50 (HOP-62) was > 100 µM (inactive) and the GI50 (RPMI-8226) was > 100 µM (inactive). The GI50 (M14) was > 100 µM (inactive), the GI50 (OVCAR-5) was > 100 µM (inactive) and the GI50 (UACC-257) was > 100 µM (inactive). The GI50 (XF498) was > 100 µM (inactive), the GI50 (K562) was > 100 µM (inactive) and the GI50 (Malme-3M) was > 100 µM (inactive). For the same molecule, the GI50 (COLO 205) was > 100 µM (inactive), the GI50 (SF-539) was > 100 µM (inactive) and the GI50 (LOX IMVI) was > 100 µM (inactive). For the same molecule, the GI50 (TK-10) was > 100 µM (inactive), the GI50 (NCI-H522) was > 100 µM (inactive) and the GI50 (SW-620) was > 100 µM (inactive). The GI50 (EKVX) was > 100 µM (inactive) and the GI50 (A549) was > 100 µM (inactive).
